According to publication PMC6934184, “Selective DNA-PKcs inhibition extends the therapeutic index of localized radiotherapy and chemotherapy” (The Journal of Clinical Investigation, 2019):

Target: T1, KIT D816V (Homo sapiens, UniProt P10721, D816V)
T1 construct: purchased Thermo Fisher Scientific (Life Technologies) SelectScreen
Test: SelectScreen LanthaScreen
Format: binding
Conditions: read-out: % displacement
In short: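 NU5455 was profiled across the SelectScreen Broad panel of kinase activity and binding assays. Z'LYTE reactions such as CSF1R ran at apparent Km ATP, while the Adapta CAMK1 assay used ATP listed as 10. Values are given as percent.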

T1 sequence (P10721 26-976 D816V): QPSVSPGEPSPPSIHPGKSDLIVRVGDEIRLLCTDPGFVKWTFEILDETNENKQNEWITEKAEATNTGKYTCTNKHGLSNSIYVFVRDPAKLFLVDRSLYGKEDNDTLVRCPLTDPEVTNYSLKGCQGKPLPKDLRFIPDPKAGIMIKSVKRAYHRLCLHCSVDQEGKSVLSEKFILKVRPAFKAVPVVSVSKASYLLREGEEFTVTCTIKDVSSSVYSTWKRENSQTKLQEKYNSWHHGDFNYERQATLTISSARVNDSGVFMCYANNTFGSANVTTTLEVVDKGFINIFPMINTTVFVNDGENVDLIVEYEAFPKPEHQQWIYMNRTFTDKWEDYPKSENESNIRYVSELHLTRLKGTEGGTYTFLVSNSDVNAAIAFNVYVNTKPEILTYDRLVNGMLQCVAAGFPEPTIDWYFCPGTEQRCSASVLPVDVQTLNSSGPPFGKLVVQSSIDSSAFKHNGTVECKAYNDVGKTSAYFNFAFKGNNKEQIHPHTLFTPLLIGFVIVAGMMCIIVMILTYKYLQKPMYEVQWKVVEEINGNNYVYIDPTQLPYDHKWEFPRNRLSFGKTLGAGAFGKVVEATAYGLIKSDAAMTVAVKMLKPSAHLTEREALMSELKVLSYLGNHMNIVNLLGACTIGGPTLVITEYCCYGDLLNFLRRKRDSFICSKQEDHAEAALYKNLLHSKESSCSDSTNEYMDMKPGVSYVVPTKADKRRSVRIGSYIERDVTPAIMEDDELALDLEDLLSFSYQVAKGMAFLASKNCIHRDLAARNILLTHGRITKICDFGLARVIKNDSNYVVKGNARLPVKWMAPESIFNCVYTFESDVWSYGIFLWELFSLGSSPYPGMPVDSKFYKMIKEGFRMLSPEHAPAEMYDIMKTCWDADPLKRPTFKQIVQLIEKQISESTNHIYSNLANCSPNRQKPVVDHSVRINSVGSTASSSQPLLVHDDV

SMILES: CN(C(=O)CN1CCOCC1)c1ccc2sc3c(-c4cccc5c(=O)cc(N6CC7CCC(C6)O7)oc45)cccc3c2c1 [NU5455]
- inhibition at 1 µM: 0.9%
